Test results reported in patent US20100048594A1, “USE OF CYTOHESIN INHIBITORS FOR CHEMICALLY INDUCING LONGEVITY” (RHEINISCHE FRIEDRICH-WILHELMS UNIVERSITAT, priority 2006, published 2010).

Key:
[1] = tested on: Drosophila melanogaster flies; assay: Lifespan of adult Drosophila melanogaster flies fed with compound (Kaplan-Meier analysis); format: in vivo; conditions: 10 μM compound in food; for Average Lifespan: ±margin of error
Protocol: The experiments were conducted on isogenic flies (Drosophila melanogaster) of the genotype white^1118, also called white^− or w^−, and mutants (w^1118; step^k08110/step^SH0323) (strain # 10770 from the public Bloomington Stock Center, genotype: step^k08110/CyO, URL http://flybase.bio.indiana.edu/reports/FBstOO10770.html; strain # FBst0103734 from the public Szeged Stock Center, genotype: step^SH0323/CyO, URL http://flybase.bio.indiana.edu/reports/FBst0103734.html), in which the Drosophila cytohesin steppke is mutated and therefore defective.
By crossing the two steppke alleles k08110 and SH0323 eight times with whites flies, an isogenic genetic background is produced, which permits a comparison of the lifespans between the genotypes of the type white^1118 and the mutants (w^1118; step^k08110/step^SH0323). The average lifespan of the wild type was approximately 25 days, while that of the mutants (w^1118; step^k08110/step^SH0323) was approximately 30 days.
To produce the special food, 32.5 g autolysed yeast (Fluka (Catalog No. 73145)) and 10 g agar (Difco (Catalog No. 281230)) were mixed with 300 ml water (demineralized, Roth (Catalog No. 3175)) and autoclaved at 120° C. for 20 minutes. The solution was cooled to 60° C., and 32.5 g α-D(+)-glucose monohydrate (Roth (Catalog No. 6887)) were added under stirring. 15 ml 10% (w/v) p-hydroxybenzoic acid methylester (Sigma (Catalog No. H3647)) solution dissolved in 70% (v/v) ethanol (Roth (Catalog No. 9065)) and 1.35 ml dimethylsulfoxide (DMSO, Roth (Catalog No. A994)) were then added. Water was then added to this basic solution to a volume of 450 ml, which was then held at a temperature of 60° C. For the control food, 50 ml of a 0.7% (v/v) DMSO solution in water were produced. For the food containing the compounds according to formulas (9) or (25), 0.2 ml of a 25 mM solution of the compounds according to formula (9) or (25) in 100% DMSO were added to 49.8 ml of a 0.3012% DMSO solution in water.
These 50 ml of the control solutions and the solutions containing the compounds according to formula (9) or (25) were each mixed with 450 ml of the basic solution, and were placed in 4 ml amounts in polystyrene containers (height 9.5 cm, diameter 2.4 cm, sealed with cotton wadding) to maintain the flies. After 24 hours, the cooled containers were sealed with cotton wadding and stored at 4° C.
The final concentration of the food components in the control food was 6.5% (w/v) autolysed yeast, 6.5% (w/v) α-D(+)-glucose monohydrate, 2% (w/v) agar, 0.3% (w/v) p-hydroxybenzoic acid methylester, 2.1% ethanol (v/v), 0.34% (v/v) DMSO.
(§1) The final concentration of the food components in the food containing the compound according to formula (9) was 6.5% (w/v) autolysed yeast, 6.5% (w/v) α-D(+)-glucose monohydrate, 2% (w/v) agar, 0.3% (w/v) p-hydroxybenzoic acid methylester, 2.1% ethanol (v/v), 0.34% (v/v) DMSO, 10 μM compound according to formula (9).
as §1, with “(25)” for “(9)”, “(25).” for “(9).”
The larvae were maintained on standard fly food containing 1.1% (w/v) brewer's yeast (“Gewürzmühle Brecht” company), 5.43% (w/v) cornmeal, 0.53% (w/v) filamentous agar (“Gewürzmühle Brecht” company), 6.6% (v/v) sugar beet syrup (Grafschafter), 1.3% (v/v) ethanol (Roth company), 0.13% (w/v) p-hydroxybenzoic acid methylester (Sigma).
24 hours after emergence of the imagines, the adult flies, females and males were separated under a brief CO2 anesthetization lasting less than 2 minutes. During the 24 hours after emergence, the animals were fed using standard fly food. […]

[2] = tested on: Drosophila eukaryotic initiation factor 4E binding protein (d4EBP, Thor); assay: Transcription rate of insulin target gene d4EBP in insulin-treated Drosophila S2 cells (real-time PCR); format: cell-based; conditions: 100 μM compound, 10 μg/ml human insulin, insulin alone less than 35%
Protocol: Drosophila Schneider 2 (S2) cells were cultivated in Schneider's Medium (PAN company) with 10% heat-inactivated fetal calf serum (FCS). 2×10^6 cells were drawn into 35 mm vessels at 25° C. to 80% confluence, washed one time in phosphate buffered saline solution (1×PBS, Gibco), and transferred for twelve hours to Schneider's Medium, without FCS. The cells were then preincubated for two hours with 0.5% DMSO containing Schneider's Medium, without FCS, with or without the compound according to formula (9) or formula (25), with the final concentrations of the compounds according to formulas (9) and (25) being 1 μM, 10 μM and 100 μM. This was followed by a four-hour stimulation with 10 μg/ml human insulin (Sigma).
After washing the cells two times with PBS, total RNA was then isolated from the cells using the NucleoSpin RNA II Kit (Macherey & Nagel), according to the manufacturer's instructions. The first strain cDNA synthesis was performed with every 500 ng RNA, using the QuantiTect Reverse Transcription Kit (Qiagen), according to the manufacturer's instructions. […]
The activity of the insulin signaling pathway was determined from the transcription rate of the insulin target gene Drosophila eukaryotic initiation factor 4E binding protein (d4EBP, Thor). […]

**Q.** Which change in lifespan ([1]; control animals and mutants) does the source give for `COc1nc(-c2ccc(C(C)(C)C)cc2)n(-c2ccc(NC(=O)CSc3ccccc3)cc2)n1` [Compound (25)] here?
**A.** no significant change

**Q.** What about the “Average Lifespan” value ([1]; genotype w^1118, female flies) of the same compound?
**A.** 25.0 (±0.7) Days

**Q.** What about the “Average Lifespan” value ([1]; genotype w^1118, step^k08110/step^SH0323 mutants, female flies) of the same compound?
**A.** 29.3 (±0.7) Days

**Q.** And the “transcription rate of d4EBP as % of that of the untreated control groups” value [2]?
**A.** more than 95%
